Laboratory results from patent US20260200976A1, “PEPTIDE HAVING ACTIVITY OF IMPROVING STATE OF SKIN, AND USE THEREOF” (CAREGEN CO., LTD., priority 2022, published 2026).

Legend:
NIH3T3 cells [1] = test: Proliferation of skin cells, MTT survival rate; assay type: cell-based, mouse; conditions: 50 μM or 100 μM peptide, 72 hours, FIG. 1
Experimental: In this example, the aim was to confirm the effect of a peptide according to an example on proliferation of skin cells, by evaluating changes in survival rate of NIH3T3 cells, which are mouse fibroblasts.
Specifically, NIH3T3 cells were seeded in a […] at a density of 1×10^4 cells/well and cultured for 24 hours. Next, the cells were washed once with serum-free DMEM media, and 50 μM or 100 μM of a peptide consisting of an amino acid sequence of SEQ ID NO: 1 was dispensed into 200 μL of the serum-free media, and cultured in a CO2 incubator at 37° C. for 72 hours. Next, the culture was washed twice with PBS, and MTT solution was dispensed into each well at a concentration of 0.5 mg/ml. Next, it was shaded from light and cultured in a CO2 incubator at 37° C. for 4 hours, and the absorbance at 540 nm was measured using a microplate reader (Molecular Devices, USA).

collagen type 1 (Col1a1) = test: Expression of extracellular matrix component Col1a1, RT-PCR in NIH3T3 cells; assay type: cell-based, mouse; conditions: 10 μM or 50 μM peptide, 24 hours, FIG. 2 and FIG. 3
Experimental: (§1) In this example, the aim was to confirm the effect of the peptide according to an example on improving endogenous skin aging, including improvement of wrinkles and enhancement of elasticity, etc., by evaluating the expression levels of collagen type 1 (Col1a1), fibronectin, and elastin, which are known components of the dermis.
(§2) Specifically, NIH3T3 cells were seeded in a 6-well plate at a density of 3×10^5 cells/well and cultured for 24 hours. Next, the cells were washed once with serum-free DMEM media, and 10 μM or 50 μM of a peptide consisting of an amino acid sequence of SEQ ID NO: 1 was dispensed into 1 mL of the serum-free media, and cultured in a CO2 incubator at 37° C. for 24 hours. Next, the culture was washed twice with PBS, and RNA was isolated from the culture using easy blue (iNtRON, Cat. No.: 17061, Korea). Next, using an RT kit (Enzynomics, Cat. NO.: RT200, Korea), the isolated RNA was reverse transcribed to synthesize the respective cDNA. Next, using the synthesized 1 μg cDNA, primers for Col1a1, fibronectin, or elastin, and a PCR kit (Enzynomics, Cat. No.: P581T, Korea), polymerase chain reaction (PCR) was performed. Meanwhile, in this example, an untreated group was used as a control group, and a group to which TGF-β1 was added was used as a positive control group, the nucleotide sequences of the primers used in this example are shown in Table 2 below.

fibronectin = test: Expression of extracellular matrix component fibronectin, RT-PCR in NIH3T3 cells; assay type: cell-based, mouse; conditions: 10 μM or 50 μM peptide, 24 hours, FIG. 2 and FIG. 3
Experimental: as §1, §2

elastin = test: Expression of extracellular matrix component elastin, RT-PCR in NIH3T3 cells; assay type: cell-based, mouse; conditions: 10 μM or 50 μM peptide, 24 hours, FIG. 2 and FIG. 3
Experimental: as §1, §2

sirtuin-1 (SIRT-1) = test: Expression of skin barrier factor SIRT-1, RT-PCR in HaCaT cells; assay type: cell-based; conditions: 50 μM or 1000 μM peptide, 24 hours, FIG. 4 and FIG. 5
Experimental: (§3) In this example, the aim was to confirm the effect of the peptides according to an example on strengthening the skin barrier, by evaluating the expression levels of sirtuin-1 (SIRT-1) or aquaporin-3 (AQP3).
(§4) Specifically, HaCaT cells were seeded in a 6-well plate at a density of 3×10^5 cells/well and cultured for 24 hours. Next, the cells were washed once with serum-free DMEM media, and 50 μM or 1000 μM of a peptide consisting of an amino acid sequence of SEQ ID NO: 1 was dispensed into 1 mL of the serum-free media, and cultured in a CO2 incubator at 37° C. for 24 hours. Next, the culture was washed twice with PBS, and RNA was isolated from the culture using easy blue (iNtRON, Cat. No.: 17061, Korea). Next, using an RT kit (Enzynomics, Cat. NO.: RT200, Korea), the isolated RNA was reverse transcribed to synthesize the respective cDNA. Next, using the synthesized 1 μg cDNA, primers for SIRT-1 or AQP3, and a PCR kit (Enzynomics, Cat. No.: P581T, Korea), polymerase chain reaction (PCR) was performed. Meanwhile, in this example, an untreated group was used as a control group, and a group to which EGF was added was used as a positive control group, the nucleotide sequences of the primers used in this example are shown in Table 3 below.

aquaporin-3 (AQP3) = test: Expression of skin barrier factor AQP3, RT-PCR in HaCaT cells; assay type: cell-based; conditions: 50 μM or 1000 μM peptide, 24 hours, FIG. 4 and FIG. 5
Experimental: as §3, §4

NIH3T3 cells [2] = test: Inhibition of apoptosis induced by ultraviolet rays, MTT survival rate, NIH3T3; assay type: cell-based, mouse; conditions: 50 μM or 100 μM peptide, 6 J/cm2 ultraviolet rays, FIG. 6
Experimental: (§5) In this example, the aim was to confirm the effect of the peptide according to an example on the inhibition of apoptosis or cell recovery of skin cells induced by ultraviolet rays, by evaluating the change in survival rate of skin cells whose apoptosis was induced by ultraviolet irradiation.
(§6) Specifically, NIH3T3 cells or HaCaT cells were seeded in a 96-well plate at a density of 1×10^4 cells/well and cultured for 24 hours. Next, the cells were washed once with serum-free DMEM media, and 50 μM or 100 μM of the peptide consisting of an amino acid sequence of SEQ ID NO: 1 was dispensed into 200 μL of the medium. The culture medium dispensed with the peptide was cultured in a CO2 incubator at 37° C. for 1 hour, transferred to an e-tube, mixed with 100 ul of PBS, and dispensed into a well plate. Next, using a UV irradiator (VILBER LOURMAT, Cat No.: 3102-BSU, France), 6 J/cm2 ultraviolet rays were irradiated to NIH3T3 cells, and […] ultraviolet rays were irradiated to HaCaT cells. Next, PBS in the well plate was removed, MTT (Sigma, Cat. No.: M2003, USA) solution was dispensed into each well at 0.5 mg/ml, and cultured in a CO2 incubator at 37° C. for […]. Next, the absorbance of the culture was measured at 540 nm using a microplate reader (Molecular Devices, USA). […]

HaCaT cells [3] = test: Inhibition of apoptosis induced by ultraviolet rays, MTT survival rate, HaCaT; assay type: cell-based; conditions: 50 μM or 100 μM peptide, 15 m J/cm2 ultraviolet rays, FIG. 7
Experimental: as §5, §6

NIH3T3 cells [4] = test: Reduction of reactive oxygen species increased by ultraviolet rays, DCF-DA flow cytometry, NIH3T3; assay type: cell-based, mouse; conditions: 50 μM or 1000 μM peptide, 6 J/cm2 ultraviolet rays, 24 hours, FL1 fluorescence, FIG. 8
Experimental: (§7) In this example, the aim was to confirm the effect of the peptide according to an embodiment on the antioxidant effect in damaged skin, by evaluating the change in the level of reactive oxygen species in skin cells increased by ultraviolet irradiation.
(§8) Specifically, NIH3T3 cells or HaCaT cells were seeded in a 6-well plate at a density of 5×10^5 cells/well and cultured for 24 hours. Next, the cells were washed once with serum-free DMEM media, and 50 μM or 1000 μM of a peptide consisting of an amino acid sequence of SEQ ID NO: 1 was dispensed into 1 mL of the serum-free media, and cultured in a CO2 incubator at 37° C. for […]. Next, the above culture was transferred to an e-tube, mixed with 1 ml of PBS, and dispensed into a well plate. Next, using a UV irradiator (VILBER LOURMAT, Cat No.: 3102-BSU, France), 6 J/cm2 ultraviolet rays were irradiated to NIH3T3 cells, and 15 J/cm2 ultraviolet rays were irradiated to HaCaT cells. Next, the PBS in the well plate was removed, 900 μL of the culture medium in which the peptides were dispensed was added, and the plate was cultured in a CO2 incubator at 37° C. for 24 hours. […] After washing the centrifuged cells with PBS, FL1 fluorescence values were measured through flow cytometry (FACS, BD, USA). […]

HaCaT cells [5] = test: Reduction of reactive oxygen species increased by ultraviolet rays, DCF-DA flow cytometry, HaCaT; assay type: cell-based; conditions: 50 μM or 1000 μM peptide, 15 J/cm2 ultraviolet rays, 24 hours, FL1 fluorescence, FIG. 9
Experimental: as §7, §8

Question: For EVVDI [SEQ ID NO: 1], which “proliferation of fibroblasts (cell survival rate)” value (NIH3T3 cells [1]) is on record?
Answer: The value was “promoted”.

Question: What about the “expression of Col1a1” value (collagen type 1 (Col1a1)) of the same substance?
Answer: Its value is “increased”.

Question: And the expression of fibronectin (fibronectin)?
Answer: The expression of fibronectin was “increased”.

Question: And the expression of elastin (elastin)?
Answer: Its expression of elastin is “increased”.

Question: What about the “expression of SIRT-1” value (sirtuin-1 (SIRT-1)) of the same substance?
Answer: Its value is “increased”.

Question: And the “expression of AQP3” value (aquaporin-3 (AQP3))?
Answer: The value was “increased”.

Question: And the “cell survival rate of fibroblasts reduced by ultraviolet irradiation” value (NIH3T3 cells [2])?
Answer: Its value is “restored”.

Question: And the “cell survival rate of keratinocytes reduced by ultraviolet irradiation” value (HaCaT cells [3])?
Answer: The value was “restored”.

Question: And the “level of reactive oxygen species in fibroblasts increased by ultraviolet irradiation” value (NIH3T3 cells [4])?
Answer: The value was “reduced”.

Question: And the “level of reactive oxygen species in keratinocytes increased by ultraviolet irradiation” value (HaCaT cells [5])?
Answer: The value was “reduced”.
